Results as given in the supplement of paper PMC10307832.

Tests used:
Assay in all cases: relative viability (nuclei count vs DMSO), 5 days (fraction); higher = more cells survive
[1] = compound: CC1=C(CC(=O)O)c2cc(F)ccc2/C1=C\c1ccc([S+](C)[O-])cc1 [Sulindac] + CC(C)C[C@H](NC(=O)[C@H](Cc1ccccc1)NC(=O)c1cnccn1)B(O)O [Bortezomib] (partner 0.002 µM)
How it was run: (§1)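 Each reported value is a median over duplicate plates. It expresses relative viability: treated-well nuclei count divided by vehicle-well nuclei count. Lung cancer cell lines in 1536-well plates were dosed by pin tool a day after seeding, alone with one drug or with a fixed anchor-drug dose plus five library-drug doses (not always all listed) in √10 steps, and nuclei were counted after 5 days.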

[2] = compound: CN[C@@H]1C[C@H]2O[C@@](C)([C@@H]1OC)n1c3ccccc3c3c4c(c5c6ccccc6n2c5c31)C(=O)NC4 [Staurosporine] + CC(C)C[C@H](NC(=O)[C@H](Cc1ccccc1)NC(=O)c1cnccn1)B(O)O [Bortezomib] (partner 0.002 µM)
How it was run: as §1

[3] = compound: CN[C@@H]1C[C@H]2O[C@@](C)([C@@H]1OC)n1c3ccccc3c3c4c(c5c6ccccc6n2c5c31)C(=O)NC4 [Staurosporine] + C[C@@H](Oc1cc(-c2cnn(C3CCNCC3)c2)cnc1N)c1c(Cl)ccc(F)c1Cl [Crizotinib] (partner 1 µM)
How it was run: as §1

[4] = compound: CN[C@@H]1C[C@H]2O[C@@](C)([C@@H]1OC)n1c3ccccc3c3c4c(c5c6ccccc6n2c5c31)C(=O)NC4 [Staurosporine] + Cc1nc(Nc2ncc(C(=O)Nc3c(C)cccc3Cl)s2)cc(N2CCN(CCO)CC2)n1 [Dasatinib] (partner 0.075 µM)
How it was run: as §1

| Cell Line | relative viability ([1]; first compound 0.08 µM) | relative viability ([1]; first compound 0.253 µM) | relative viability ([1]; first compound 2.53 µM) | relative viability ([1]; first compound 8 µM) | relative viability ([2]; first compound 0.005 µM) | relative viability ([2]; first compound 0.05 µM) | relative viability ([2]; first compound 0.1581 µM) | relative viability ([2]; first compound 0.5 µM) | relative viability ([3]; first compound 0.005 µM) | relative viability ([3]; first compound 0.01581 µM) | relative viability ([3]; first compound 0.05 µM) | relative viability ([3]; first compound 0.1581 µM) | relative viability ([3]; first compound 0.5 µM) | relative viability ([4]; first compound 0.005 µM) | relative viability ([4]; first compound 0.1581 µM) | relative viability ([4]; first compound 0.5 µM) | relative viability ([1]; first compound 0.8 µM) | relative viability ([4]; first compound 0.01581 µM) | relative viability ([4]; first compound 0.05 µM) | relative viability ([2]; first compound 0.01581 µM) |
| --- | --- | --- | --- | --- | --- | --- | --- | --- | --- | --- | --- | --- | --- | --- | --- | --- | --- | --- | --- | --- |
| SK-LU-1 | 1.7 | 1.07 | 0.906 | 1.8 | 0.906 | 0.255 | 0.2 | 0.179 | 0.372 | 0.198 | 0.19 | 0.169 | 0.161 | 0.183 | 0.102 | 0.1 | – | – | – | – |
| NCI-H1915 | 1.18 | 1.08 | 0.956 | 1.05 | 1.04 | 0.327 | 0.118 | 0.154 | 0.903 | – | 0.362 | 0.294 | 0.268 | 0.212 | 0.0847 | 0.0869 | 0.861 | 0.0927 | 0.204 | – |
| NCI-H650 | 0.845 | 0.877 | 0.897 | 1.08 | 0.504 | 0.315 | 0.212 | 0.206 | 0.443 | 0.333 | 0.271 | 0.196 | 0.151 | 0.284 | 0.229 | 0.223 | 0.862 | 0.264 | 0.271 | 0.283 |
| NCI-H441 | 0.594 | 0.54 | 0.422 | 1.11 | 0.391 | 0.212 | 0.133 | 0.126 | 0.8 | 0.29 | 0.3 | 0.179 | 0.156 | 0.705 | 0.163 | 0.082 | 0.458 | 0.326 | 0.572 | 0.209 |
| COR-L 105 | 0.819 | 0.939 | 0.724 | 1.09 | 0.351 | 0.203 | 0.22 | 0.231 | 0.45 | 0.405 | – | 0.307 | 0.195 | 0.281 | 0.155 | 0.157 | 0.626 | – | 0.158 | 0.257 |
| NCI-H2009 | 1.1 | 1.16 | 1.01 | 1.04 | 0.278 | 0.165 | 0.0953 | 0.0887 | 0.255 | 0.22 | 0.174 | 0.123 | 0.0888 | 0.197 | 0.153 | 0.116 | 0.877 | 0.158 | 0.152 | 0.147 |
| NCI-H1437 | 0.553 | 0.767 | 0.418 | 0.688 | 0.356 | 0.294 | 0.0975 | 0.0786 | 0.924 | 0.702 | – | 0.545 | 0.449 | 0.391 | 0.173 | 0.134 | 0.293 | 0.208 | 0.285 | 0.167 |
| PC-3 [JPC-3] | 0.967 | 0.796 | 0.907 | 0.862 | 0.866 | 0.511 | 0.275 | 0.316 | – | – | 0.707 | 0.498 | 0.425 | – | 0.235 | 0.204 | 1.02 | 0.424 | 0.375 | – |
| NCI-H1703 | 0.303 | 0.394 | 0.457 | 0.284 | 0.215 | 0.11 | 0.157 | 0.111 | 0.483 | 0.253 | 0.093 | 0.133 | 0.0695 | – | – | – | 0.225 | – | – | 0.165 |
| NCI-H1944 | – | – | – | – | – | – | – | – | 1.13 | – | 0.633 | 0.666 | 0.336 | 0.212 | 0.172 | 0.134 | – | 0.271 | 0.203 | – |
| NCI-H2085 | 0.976 | 1.06 | 1.12 | 1.11 | 0.856 | 0.604 | 0.499 | 0.402 | 0.65 | 0.516 | 0.465 | 0.264 | 0.237 | 0.244 | 0.235 | 0.242 | 0.917 | 0.257 | 0.271 | 0.565 |
| EBC-1 | 0.585 | 0.557 | 0.474 | 0.663 | 0.308 | 0.185 | 0.2 | 0.14 | 0.183 | 0.205 | 0.163 | 0.105 | 0.115 | – | – | – | 0.56 | – | – | 0.234 |
| SK-MES-1 | – | – | – | – | – | – | – | – | 0.718 | 0.582 | 0.262 | 0.184 | 0.11 | 0.21 | 0.126 | 0.106 | – | 0.22 | 0.154 | – |
| SW 900 | – | – | – | – | – | – | – | – | – | – | – | – | – | 0.473 | 0.191 | 0.158 | – | 0.185 | 0.21 | – |
| NCI-H1299 | 1.09 | 1.04 | 1.03 | 1.05 | 1.1 | 0.433 | 0.255 | 0.169 | 0.516 | 0.385 | 0.55 | 0.163 | 0.142 | – | – | – | 1.04 | – | – | 1.03 |
| A549 | – | – | – | – | – | – | – | – | 0.369 | 0.19 | 0.0867 | 0.0411 | 0.0307 | – | – | – | – | – | – | – |
| NCI-H1793 | – | – | – | – | – | – | – | – | – | – | – | – | – | 0.457 | 0.141 | 0.144 | – | – | 0.302 | – |
| NCI-H1623 | – | – | – | – | – | – | – | – | – | – | – | – | – | 0.635 | 0.553 | 0.41 | – | 0.425 | 0.651 | – |
| NCI-H2170 | – | – | – | – | – | – | – | – | 1.43 | 0.754 | 0.92 | 0.195 | 0.311 | 0.91 | 0.106 | 0.117 | – | – | 0.648 | – |
| NCI-H1395 | – | – | – | – | – | – | – | – | – | – | – | – | – | 0.377 | 0.299 | 0.247 | – | 0.306 | 0.383 | – |
| HCC-44 | 0.89 | 0.882 | 0.904 | 0.966 | 0.708 | 0.169 | 0.142 | 0.0976 | 0.531 | 0.508 | 0.197 | 0.0883 | 0.0867 | – | – | – | 0.853 | – | – | 0.367 |
| NCI-H2342 | – | – | – | – | – | – | – | – | – | – | – | – | – | 0.297 | 0.234 | 0.27 | – | 0.243 | 0.26 | – |
| Calu-6 | 1.11 | 1.14 | 1.02 | 1.13 | 0.844 | 0.313 | 0.14 | 0.0926 | 0.809 | 0.337 | 0.163 | 0.0867 | 0.0627 | – | – | – | 0.915 | – | – | 0.531 |
| LK-2 | – | – | – | – | – | – | – | – | 0.18 | 0.16 | 0.129 | 0.0689 | 0.0939 | 0.551 | 0.139 | 0.121 | – | – | 0.271 | – |
